Laboratory results: the NIST ThermoML archive (doi:10.1021/je5007532)

Test: xn = mol fraction of the nth substance listed
Conditions: for viscosity: 100 kPa, Falling or rolling sphere viscometry; for viscosity / speed of sound / mass density: Liquid; for speed of sound / mass density: 101 kPa; for speed of sound: Sing-around technique in a fixed-path interferometer; for mass density: Vibrating tube method; for surface tension liquid-gas: 294.4 K, Pendant drop shape

CC(C)CC(C)(C)C [2,2,4-trimethylpentane] + CCCCCCC
Conditions | mass density [kg/m3] | speed of sound [m/s] | viscosity [mPa·s]
293.15 K, x1 = 0.1 | 684.83 | 1146.5 | 0.416
293.15 K, x1 = 0.2001 | 685.71 | 1141.7 | 0.423
293.15 K, x1 = 0.2999 | 686.59 | 1136.6 | 0.43
293.15 K, x1 = 0.4001 | 687.45 | 1131.6 | 0.438
293.15 K, x1 = 0.5001 | 688.28 | 1127 | 0.447
293.15 K, x1 = 0.6 | 689.06 | 1122 | 0.456
293.15 K, x1 = 0.6999 | 689.77 | 1117.2 | 0.466
293.15 K, x1 = 0.8 | 690.5 | 1112.5 | 0.477
293.15 K, x1 = 0.9 | 691.17 | 1107.7 | 0.488
293.15 K, x1 = 1 | 691.84 | 1103.2 | 0.501
298.15 K, x1 = 0.1 | 680.61 | 1125.3 | 0.394
298.15 K, x1 = 0.2001 | 681.5 | 1120.5 | 0.4
298.15 K, x1 = 0.2999 | 682.4 | 1115.5 | 0.407
298.15 K, x1 = 0.4001 | 683.27 | 1110.5 | 0.415
298.15 K, x1 = 0.5001 | 684.12 | 1105.9 | 0.423
298.15 K, x1 = 0.6 | 684.91 | 1101 | 0.432
298.15 K, x1 = 0.6999 | 685.63 | 1096.2 | 0.441
298.15 K, x1 = 0.8 | 686.36 | 1091.6 | 0.451
298.15 K, x1 = 0.9 | 687.05 | 1086.7 | 0.462
298.15 K, x1 = 1 | 687.7 | 1082 | 0.473
303.15 K, x1 = 0.1 | 676.36 | 1103.9 | 0.373
303.15 K, x1 = 0.2001 | 677.27 | 1099.2 | 0.379
303.15 K, x1 = 0.2999 | 678.18 | 1094.2 | 0.386
303.15 K, x1 = 0.4001 | 679.07 | 1089.3 | 0.393
303.15 K, x1 = 0.5001 | 679.93 | 1084.7 | 0.4
303.15 K, x1 = 0.6 | 680.73 | 1079.9 | 0.408
303.15 K, x1 = 0.6999 | 681.46 | 1075.1 | 0.417
303.15 K, x1 = 0.8 | 682.2 | 1070.5 | 0.426
303.15 K, x1 = 0.9 | 682.89 | 1065.8 | 0.436
303.15 K, x1 = 1 | 683.59 | 1061.4 | 0.447
308.15 K, x1 = 0.1 | 672.09 | 1082.7 | 0.355
308.15 K, x1 = 0.2001 | 673.01 | 1078 | 0.36
308.15 K, x1 = 0.2999 | 673.93 | 1073.1 | 0.366
308.15 K, x1 = 0.4001 | 674.83 | 1068.2 | 0.373
308.15 K, x1 = 0.5001 | 675.71 | 1063.7 | 0.38
308.15 K, x1 = 0.6 | 676.52 | 1058.9 | 0.387
308.15 K, x1 = 0.6999 | 677.26 | 1054.2 | 0.396
308.15 K, x1 = 0.8 | 678.02 | 1049.7 | 0.404
308.15 K, x1 = 0.9 | 678.72 | 1045 | 0.413
308.15 K, x1 = 1 | 679.4 | 1040.4 | 0.423
313.15 K, x1 = 0.1 | 667.78 | 1061.7 | –
313.15 K, x1 = 0.2001 | 668.71 | 1057 | –
313.15 K, x1 = 0.2999 | 669.65 | 1052.2 | –
313.15 K, x1 = 0.4001 | 670.57 | 1047.3 | –
313.15 K, x1 = 0.5001 | 671.46 | 1042.8 | –
313.15 K, x1 = 0.6 | 672.28 | 1038.1 | –
313.15 K, x1 = 0.6999 | 673.03 | 1033.5 | –
313.15 K, x1 = 0.8 | 673.8 | 1029 | –
313.15 K, x1 = 0.9 | 674.52 | 1024.3 | –
313.15 K, x1 = 1 | 675.23 | 1020 | –
318.15 K, x1 = 0.1 | 663.44 | 1040.7 | 0.32
318.15 K, x1 = 0.2001 | 664.39 | 1036.1 | 0.325
318.15 K, x1 = 0.2999 | 665.34 | 1031.3 | 0.33
318.15 K, x1 = 0.4001 | 666.28 | 1026.5 | 0.336
318.15 K, x1 = 0.5001 | 667.18 | 1022.1 | 0.343
318.15 K, x1 = 0.6 | 668.02 | 1017.4 | 0.349
318.15 K, x1 = 0.6999 | 668.78 | 1012.8 | 0.356
318.15 K, x1 = 0.8 | 669.55 | 1008.4 | 0.363
318.15 K, x1 = 0.9 | 670.28 | 1003.8 | 0.372
318.15 K, x1 = 1 | 670.98 | 999.3 | 0.38
323.15 K, x1 = 0.1 | 659.07 | 1019.8 | 0.305
323.15 K, x1 = 0.2001 | 660.04 | 1015.2 | 0.309
323.15 K, x1 = 0.2999 | 661 | 1010.5 | 0.314
323.15 K, x1 = 0.4001 | 661.95 | 1005.7 | 0.32
323.15 K, x1 = 0.5001 | 662.86 | 1001.4 | 0.326
323.15 K, x1 = 0.6 | 663.71 | 996.8 | 0.332
323.15 K, x1 = 0.6999 | 664.49 | 992.3 | 0.338
323.15 K, x1 = 0.8 | 665.28 | 987.9 | 0.345
323.15 K, x1 = 0.9 | 666.02 | 983.3 | 0.353
323.15 K, x1 = 1 | 666.75 | 979.2 | 0.361
328.15 K, x1 = 0.1 | 654.65 | 999 | 0.291
328.15 K, x1 = 0.2001 | 655.64 | 994.4 | 0.295
328.15 K, x1 = 0.2999 | 656.61 | 989.8 | 0.3
328.15 K, x1 = 0.4001 | 657.59 | 985.1 | 0.305
328.15 K, x1 = 0.5001 | 658.52 | 980.8 | 0.311
328.15 K, x1 = 0.6 | 659.37 | 976.3 | 0.316
328.15 K, x1 = 0.6999 | 660.16 | 971.8 | 0.323
328.15 K, x1 = 0.8 | 660.98 | 967.4 | 0.329
328.15 K, x1 = 0.9 | 661.73 | 963 | 0.335
328.15 K, x1 = 1 | 662.44 | 958.7 | 0.343
333.15 K, x1 = 0.1 | 650.21 | 978.3 | 0.276
333.15 K, x1 = 0.2001 | 651.22 | 973.9 | 0.28
333.15 K, x1 = 0.2999 | 652.2 | 969.2 | 0.286
333.15 K, x1 = 0.4001 | 653.19 | 964.6 | 0.29
333.15 K, x1 = 0.5001 | 654.14 | 960.4 | 0.294
333.15 K, x1 = 0.6 | 655.01 | 955.8 | 0.3
333.15 K, x1 = 0.6999 | 655.81 | 951.6 | 0.306
333.15 K, x1 = 0.8 | 656.64 | 947.3 | 0.313
333.15 K, x1 = 0.9 | 657.4 | 942.9 | 0.319
333.15 K, x1 = 1 | 658.16 | 938.6 | 0.326
338.15 K, x1 = 0.1 | 645.76 | 957.8 | –
338.15 K, x1 = 0.2001 | 646.75 | 953.3 | –
338.15 K, x1 = 0.2999 | 647.77 | 948.7 | –
338.15 K, x1 = 0.4001 | 648.75 | 944.3 | –
338.15 K, x1 = 0.5001 | 649.71 | 940.1 | –
338.15 K, x1 = 0.6 | 650.6 | 935.8 | –
338.15 K, x1 = 0.6999 | 651.41 | 931.3 | –
338.15 K, x1 = 0.8 | 652.29 | 927.2 | –
338.15 K, x1 = 0.9 | 653.03 | 922.9 | –
338.15 K, x1 = 1 | 653.8 | 918.7 | –
343.15 K, x1 = 1 | 649.4 | 899 | –

Conditions | surface tension liquid-gas [mN/m]
x1 = 0.1 | 19.9
x1 = 0.2001 | 19.7
x1 = 0.2999 | 19.5
x1 = 0.4001 | 19.4
x1 = 0.5001 | 19.2
x1 = 0.6999 | 19
x1 = 0.8 | 18.9
x1 = 1 | 18.7
